Results taken from PMC11459959, “Discovery of new acetamide derivatives of 5-indole-1,3,4-oxadiazol-2-thiol as inhibitors of HIV-1 Tat-mediated viral transcription” (Antimicrobial Agents and Chemotherapy, 2024).

Legend:
[1] = system: NNRTI-resistant HIV-1 strain 12243; assay: microbe, parasite or virus in culture; assay type: cell-based; conditions: Human immunodeficiency virus 1, TZM-bl
Protocol: (§1) Fig 7 (A–C) TZM-bl cells (1 × 10^4 cells/well) cultured in a 96-well plate were treated with fivefold serial dilutions of the indicated compound or ARV for 1 h before infection with the HIV-1NL4-3 or ARV-resistant HIV-1 strains at an MOI of 1, respectively. At 48 h after infection, the EC50 values were determined using an F-Luc activity. The symbols represent the fold-change values of EC50 against each mutant virus relative to the wild-type (WT) virus. (D) PBMCs (5 × 10^4 cells/well) were infected with the HIV-1NL4-3 and PIs-resistant HIV-1 strain at an MOI of 0.1, respectively. Subsequently, the PBMCs were treated with 10-fold serial dilutions of the indicated compounds or PI. At 3 days after infection, the EC50 values on the viral replication were determined using a p24 […] assay kit. (E) The inhibitory kinetics for the WT and ARV-resistant viruses. TZM-bl cells infected with WT or ARV-resistant viruses were cultured upon fivefold serial dilutions of each compound for 2 days and the infectivity was determined using an F-Luc activity.
(§2) The Tzm-bl-derived dual Tat reporter; TZM-bl/Tat/Rluc (bl-DTR) cells were established from TZM-bl cells using two Dox-inducible lentiviral expression cassettes cloned with Flag-tagged Tat86 and the R-Luc gene, as described in our previous study ([11]). TZM-bl, A3.01, J1.1, and J-Lat 6.3 cells as well as the HIV-1 molecular clone pNL4-3, pNL(AD8), ARV-resistant HIV-1 strains, and HIV-1NL43-IRES-eGFP (pBR43IeG-nef^+, gifted by Dr. Frank Kirchhoff) ([52]) were provided by the National Institute of Health HIV Reagent Program (NIH, Bethesda, MD, USA). HeLa (CCL-2) and 293T (CRL-3216) cell lines were purchased from the American Type Culture Collection (ATCC, Manassas, VA, USA). The bl-DTR, TZM-bl, HeLa, and 293T cells were cultured in Dulbecco’s modified Eagle’s medium supplemented with 1% penicillin–streptomycin and 10% (vol/vol) heat-inactivated fetal bovine serum (all from Gibco-BRL, Gaithersburg, MD, USA), and 1 µg/mL of puromycin and 200 µg/mL of zeocin were additionally supplemented for the bl-DTR cells. PBMCs were purchased from AllCells (Alameda, CA, USA) and cultured as previously described ([12]). The information on ARV-resistant HIV-1 strains was described in previous reports as follows: NNRTI-resistant 12241 and 12243 ([53]); NRTI-resistant 7396, 7406, and 7407 ([54]); INSTI-resistant 11847 and 11849 ([55], [56]); and PI-resistant 11800 and 11803 ([57]). Each molecular HIV-1 clone was transfected to 293T cells, as previously described ([58]), to obtain infectious HIV-1 particles. Virus-containing cell culture supernatants were collected 3 days after transfection, and filtered through a 0.45-µm membrane filter (Millipore Sigma, Burlington, MA, USA) to remove cell debris. The viral titration was performed as described previously ([59]) with some minor modifications. In brief, 1 × 10^4 TZM-bl cells seeded in 96-well plates were infected with 200 µL of virus-containing medium diluted serially twofold. The incubation was for 2 days and the experiment was performed in triplicate; the infection time minimized the virus spread ([59]). The titration of the infectious viral particles was performed with a ß-Gal staining assay using the ßeta-Galactosidase Staining Kit (Mirus Bio, Madison, WI, USA) following the manufacturer’s protocols. In brief, the infected cells were washed with phosphate-buffered saline (PBS) and fixed using a Cell Fixative Working solution. The cells were washed with PBS and stained using the Cell Staining Working Solution containing X-gal. The infected blue-colored cells were counted under a microscope (100× magnification). The infectious virus titer was determined as a mean value of blue-colored cells count × dilution factor and used for determining the multiplicity of infection (MOI) in each infection experiment.

[2] = system: NNRTI-resistant HIV-1 strain 12241; assay: microbe, parasite or virus in culture; assay type: cell-based; conditions: Human immunodeficiency virus 1, TZM-bl
Protocol: as §1, §2

[3] = system: HIV-1NL4-3; assay: HIV-1 infectivity in TZM-bl cells (F-Luc); assay type: cell-based; conditions: Human immunodeficiency virus 1, TZM-bl, 48 h, Table S1, WT virus, TZM-bl, fivefold serial dilutions, MOI 1, 48 h; read-out: EC50
Protocol: The TZM-bl cells (also referred to as JC53BL-13) expressing human CD4, CXCR4, and CCR5 carrying the F-Luc and lacZ genes downstream of the HIV-1 LTR promoter ([60]) were used to determine the inhibitory effect of the compounds on HIV-1 infection, as previously described ([11], [12], [61]). In brief, 1 × 10^4 cells were cultured in 96-well plates for 24 h and subsequently treated with compounds at the indicated concentrations. Without replacement of the culture medium, the cells were subsequently infected with the HIV-1NL4-3 wild-type or ARV-resistant HIV-1 strains at an MOI of 1 to determine the exact inhibitory effect of compounds on a single-round infection. After 48 h, the inhibitory effect of the compounds was determined using a Bright Glo luciferase assay kit (Promega) or β-Galactosidase Enzyme Assay kit (Promega). The infectivity data were presented as a percentage relative to the dimethyl sulfoxide (DMSO) control (vehicle). Cell viability was determined using the resazurin-based PrestoBlue Cell Viability Reagent (Thermo Fisher Scientific, Waltham, MA, USA) following the manufacturer’s instructions.

[4] = system: HIV-1NL4-3 IRES-eGFP-nef+; assay: eGFP-encoding HIV-1 infection of TZM-bl cells; assay type: cell-based; conditions: 9, 10, 13 1.5 μM, 20, 21, 22 4 μM, seliciclib 10 µM, triptolide 5 nM, DTG 2 nM, EFV 2 nM, 2 days
Protocol: Fig 4 (A) Comparison of the chemical structures between prominent derivatives (9, 10, and 13) and non-functional derivatives (20, 21 and 22). (B) bl-DTR cells were treated with serial dilutions of each compound upon Dox for 24 h. The activities of F-Luc and R-Luc were determined using the Dual-Glo -Luciferase assay system. (C) TZM-bl cells were infected with the HIV-1NL4-3 strain at an MOI of 1 upon treatment of compounds. At 48 h after infection, the viral infectivity and cell viability were determined as described above (Fig. 1). (D) TZM-bl cells were infected with HIV-1NL4-3 IRES-eGFP virus along with the compound treatment. Two days later, GFP-expressing cells were observed by fluorescence microscopy (100× magnification). […] At 48 h after infection, the β-gal activity indicating viral infectivity was determined using the β-gal Enzyme Assay kit. F-Luc activity and cell viability were determined as described above (Fig. 4C). (C and E) The dose-response curves show the relative activity compared with that of the DMSO vehicle (mean ± SD; n = 3).

[5] = system: HIV-1NL4-3; assay: HIV-1 replication in A3.01 cells (p24 […]); assay type: cell-based; conditions: fivefold serial dilutions, 3 days
Protocol: The p24 level from the cell supernatant was subsequently determined using a p24 […] kit (PerkinElmer). In parallel, the cell viability was determined without viral infection because of the viral cytopathic effect. […] In parallel, cell viability was determined. The data (A and B) are presented as the mean ± SD (n = 3). (C) PBMCs (4 × 10^5) infected with HIV-AD8 at an MOI of 0.1 were treated with 1.5 µM of the compounds or ARVs for 3 days. The levels of p24 and cell viability were subsequently determined. (D) J1.1 cells were cultured with the compounds ([…]) under 50 ng/mL phorbol myristate acetate (PMA) treatment for 2 days. The level of p24 was subsequently determined. (E) J-Lat 6.3 cells were treated with the compounds (1.5 µM) under 1 µg/mL of PMA for 2 days. The GFP-positive cell population was analyzed using flow cytometry. The data are represented as a value relative to the DMSO-treated vehicle (D) and a percent of the GFP^+ cell population (E) as mean ± SD (n = 3).
The inhibitory effects of the compounds on viral replication were determined with some minor modifications, as previously described ([12], [62]). […] PBMCs (4 × 10^5) pre-activated with PHA-M for 3 days were washed with fresh media to remove excess PHA-M and subsequently infected with HIV-1NL4-3 or HIV-1AD8 or PIs-resistant HIV-1 strains as A3.01 infection. After infection, the infectious media were replaced with fresh media supplemented with international 10 units (IU)/mL of IL-2 and the indicated compounds. At 72 h after infection, the inhibitory effect of the compounds on viral replication was determined by measuring the p24 amount, an HIV capsid protein, using an HIV-1 p24 […] kit (PerkinElmer, Waltham, MA, USA). Cell viability was determined as described above. The inhibitory effects on provirus reversing in J1.1 and J-Lat 6.3 cells were determined as previously described ([12], [41], [63]) with some minor modifications. Briefly, 5 × 10^4 persistently HIV-1-infected J1.1 or J-Lat 6.3 cells were cultured in either the presence or absence of the compounds at a final concentration of 1.5 µM and treated with PMA (50 ng/mL for J1.1 cells, 1 µg/mL for J-Lat 6.3 cells). Two days after treatment, the levels of viral production were determined using p24 […] for J1.1 cells and flow cytometry analysis for GFP-expressing J-Lat 6.3 cells.

[6] = system: HIV-1 transcripts; assay: RNA-seq of HIV-1 transcripts in infected TZM-bl cells; assay type: cell-based; conditions: HIV-1NL4-3 MOI 1, 1.5 µM, 2 days
Protocol: At 48 h after infection, the total RNA was extracted using the Maxwell RSC simplyRNA Cells Kit (Promega) according to the manufacturer’s instructions. RNA integrity was evaluated as RNA integrity number >6 using the Agilent 2100 Bio-analyzer (Agilent Technologies, Santa Clara, CA, USA). The cDNA libraries were constructed using TruSeq Stranded mRNA Sample Preparation Kit (Illumina, San Diego, CA, USA) according to the manufacturer’s instructions. Subsequently, these cDNA libraries were sequenced on the Illumina sequencing platform (NovaSeq6000; Illumina) and 150 bp paired-end reads were generated. Trimmomatic (v.0.32) was used to eliminate low-quality reads and adapter sequences from the sequencing data ([64]). Subsequently, the filtered reads were aligned to the HIV-1 genome (accession: AF324493.2) using STAR (v.2.3.0) ([65]). RT-qPCR analyses were performed as previously described ([66]) with some minor modifications. […] After infection, the infected cells were treated with 1.5 µM of the compounds. Forty-eight hours after treatment, the viral mRNA was isolated, converted to cDNA, and quantified through RT-qPCR on a 7500 Real-Time PCR System (Applied Biosystems) using the Power SYBR Green PCR Master Mix (Applied Biosystems). The comparative cycle threshold (Ct) method was used to analyze relative changes (Δ) in gene expression. The ΔCt values were determined using a 7500 Real-Time PCR System Software (Applied Biosystems) normalizing with gapdh, and the gene expression was calculated using the ΔΔCt-method. The primers used in this assay are the following: gag forward, 5′-[…]-3′, gag reverse, 5′-[…]-3′; gapdh forward, 5′-[…]-3′, gapdh reverse, 5′-[…]-3′.

[7] = system: proviral DNA integrated to the host chromosome; assay: Integrated proviral DNA, nested Alu-PCR in A3.01 cells; assay type: cell-based, HIV-1; conditions: compounds 5 µM, 40 h after infection
Protocol: Fig 5 (A) Time-of-addition assay. […] Subsequently, the cells were treated with the compounds at the indicated time points (0, 1, 2, 4, 6, 8, 10, 12, 24, 30, 36, 42, and 48 h) after HIV-1 infection. The final concentrations of compounds are described in Materials and Methods. Viral activity according to the timing of drug addition was measured as F-Luc activity at 54 h after infection. The relative activities are represented as the mean ± SD (n = 3) compared with the activity observed 54 h post-infection. The relative time frames associated with each HIV-1 infection step are defined based on the time frame of susceptibility to the drug that blocks that particular infection step. […] At 16 h after infection, the viral reverse transcription (RT) product (viral cDNA) level was determined by quantitative real-time PCR (RT-qPCR) using gag and 18S rRNA primer sets and represented as the mean ± SD (n = 3) normalized against the amount of the 18S rRNA compared with the DMSO control. **P < 0.01 compared with the vehicle (DMSO). (C) An in vitro integrase (IN) assay was performed with 10 µM of the indicated compounds following the manufacturer’s protocol. **P < 0.01 compared with vehicle (DMSO). (D) A3.01 cells were infected with HIV-1 upon treatment with the indicated compounds (5 µM) and ARVs (EFV and DTG) as the experimental controls. At 40 h after infection, cellular chromosomal DNA was purified, and the integrated proviral DNA was detected through nested Alu-PCR amplification.
The activity of HIV-1 RT was determined as previously described with some minor modifications ([66][–][68]). In brief, HIV-1NL4-3 obtained from plasmid transfection was treated with DNase I (2.5 U/mL) for 2 h at 37°C to remove the plasmid DNA. […] Sixteen hours after infection, the cell cytosolic DNA was isolated under RNase A treatment, and the RT products (cytosolic viral cDNA) were quantified using RT-qPCR and the following primers: gag forward, 5′-[…]-3′, gag reverse, 5′-[…]-3′; 18S rRNA forward, 5′-[…]-3′, 18S rRNA reverse, 5′-[…]-3′. The relative levels of RT products were analyzed using the ΔΔCt-method, as described above. In vitro integrase activity was determined using an HIV-1 integrase assay kit (XpressBio, Frederick, MD, USA) as previously described ([12]). In brief, a 96-well plate coated with donor substrate DNA was blocked, and HIV-1 integrase was then added to the plate. Subsequently, the compounds and target substrate DNA were added to the plate and incubated for 30 min at 37°C. The plate was washed and subsequently incubated with horse radish peroxidase. Integrase activity was measured by the peroxidase activity with the substrate at an optical density of 450 nm. The experiment was performed in triplicates. Detection of integrated proviral DNA was performed as previously described ([69]) with some minor modifications. […] Chromosomal DNA was purified using the G-Spin DNA extraction kit (Intron Bio Tech, Seongnam-si, Gyeonggi-do, Republic of Korea). The integrated proviral HIV-1 DNA was detected by nested Alu-PCR amplification using the following primers: first round PCR, Alu forward, 5′-[…]-3′, pol reverse, 5′-[…]-3′; second round PCR, gag forward, 5′-[…]-3′, pol reverse. gapdh was used as the control gene.

| Structure (SMILES) | EC50 [1] | EC50 [2] | EC50 [3] | inhibition of viral-expressed eGFP signal [4] | inhibition of viral replication (in words) [5] | read counts of transcripts mapped to the HIV-1 genome [6] | nested Alu-PCR band for integrated proviral DNA [7] |
| --- | --- | --- | --- | --- | --- | --- | --- |
| Cc1ccnc2c1NC(=O)c1cccnc1N2C1CC1 [NVP, nevirapine, reference compound] | 23.9 ± 2.3 µM | > 100 µM | 0.06 µM |  |  |  |  |
| Cc1[nH]c2ccc(-c3nnc(S(=O)(=O)C(C)C(=O)N4CCCCC4)o3)cc2c1C (stereo not drawn) [Compound 20, 2-((5-(2,3-Dimethyl-1H-indol-5-yl)-1,3,4-oxadiazol-2-yl)sulfonyl)-1-(piperidin-1-yl)propan-1-one] |  |  |  | did not | did not | not observed |  |
| Cc1[nH]c2ccc(-c3nnc(S(=O)(=O)C(C)C(=O)N4CCCC4)o3)cc2c1C (stereo not drawn) [Compound 21, 2-((5-(2,3-Dimethyl-1H-indol-5-yl)-1,3,4-oxadiazol-2-yl)sulfonyl)-1-(pyrrolidin-1-yl)propan-1-one] |  |  |  | did not |  | not observed | observed |
